Measurements published in the supplement of paper PMC11208160.

Assay: recombinant UMI read abundance after kanamycin selection (control-corrected) (log10(CPM+1)); higher = more efficient recombination; extreme values may be limits of the assay; sequences stand for … in AGTGCAGAGAAAATCGGCCAGTTTTCTCTGCCTGCAGTCCGCATGCCGTGGGACCCCTTGGGTTCTAACCTGTTGCCTAGATTTATGCAGCGGACTGCCTTTCTCCCAAAGTGATAAACCGG…AGGTTGGTTTCACT; site = the 11-nt donor
Procedure, shortened: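 Sequencing read counts were converted to CPM, averaged over two replicates and scaled by control-derived factors. Results are given as log10(CPM+1). The reads covered the donor–target junction of recombinant UMIs from a pooled Escherichia coli screen of donor and donor-binding-loop pairs for the IS621 bridge recombinase.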
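Also: IS621 bridge recombinase in Escherichia coli cells against a fixed T5 target plasmid.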

AGCTGAGCATGGACCGGTTTTCCCGGTAATCCGTATTTGGG (site AGCTTAGCTCC)
recombinant UMI read abundance (log10): 0.0451

AGCTGCGCATGGACCGGTTTTCCCGGTAATCCGTATTTGAA (site AGCTGCGCTTT)
recombinant UMI read abundance (log10): 1.4

AGCTTCGCATGGACCGGTTTTCCCGGTAATCCGTATTTGAC (site AGCTTCGCTGT)
recombinant UMI read abundance (log10): 1.58

AGCTTTTCATGGACCGGTTTTCCCGGTAATCCGTATTTGAC (site AGCATTTCTGT)
recombinant UMI read abundance (log10): 0

AGCTTTTCATGGACCGGTTTTCCCGGTAATCCGTATTTGAC (site AGCCTTTCTGT)
recombinant UMI read abundance (log10): 0

AGCTTTTCATGGACCGGTTTTCCCGGTAATCCGTATTTGAC (site AGCGTTTCTGT)
recombinant UMI read abundance (log10): 0

AGCTTTTCATGGACCGGTTTTCCCGGTAATCCGTATTTGAC (site AGCTTTTCTGT)
recombinant UMI read abundance (log10): 0.00446

AGGAAAACATGGACCGGTTTTCCCGGTAATCCGTATTTGCG (site AGGAAAACTCG)
recombinant UMI read abundance (log10): 1.5

AGGAAAACATGGACCGGTTTTCCCGGTAATCCGTATTTGCG (site AGGAAGACTTG)
recombinant UMI read abundance (log10): 0

AGGAAAACATGGACCGGTTTTCCCGGTAATCCGTATTTGGG (site AGGAAAACTCC)
recombinant UMI read abundance (log10): 0.592

AGGAACACATGGACCGGTTTTCCCGGTAATCCGTATTTGCC (site AGGAACACTGG)
recombinant UMI read abundance (log10): 3.08

AGGAACACATGGACCGGTTTTCCCGGTAATCCGTATTTGCC (site AGGAAGACTTG)
recombinant UMI read abundance (log10): 0

AGGAAGACATGGACCGGTTTTCCCGGTAATCCGTATTTGCT (site AGGAAGACTAG)
recombinant UMI read abundance (log10): 2.25

AGGAAGACATGGACCGGTTTTCCCGGTAATCCGTATTTGCT (site AGGAAGACTCG)
recombinant UMI read abundance (log10): 0.519

AGGAAGACATGGACCGGTTTTCCCGGTAATCCGTATTTGCT (site AGGAAGACTGG)
recombinant UMI read abundance (log10): 0

AGGAAGACATGGACCGGTTTTCCCGGTAATCCGTATTTGCT (site AGGAAGACTTG)
recombinant UMI read abundance (log10): 1.46

AGGAAGACATGGACCGGTTTTCCCGGTAATCCGTATTTGGA (site AGGAAGACTTA)
recombinant UMI read abundance (log10): 1.71

AGGAAGACATGGACCGGTTTTCCCGGTAATCCGTATTTGGA (site AGGAAGACTTC)
recombinant UMI read abundance (log10): 2.32

AGGAAGACATGGACCGGTTTTCCCGGTAATCCGTATTTGGA (site AGGAAGACTTG)
recombinant UMI read abundance (log10): 1.04

AGGAAGACATGGACCGGTTTTCCCGGTAATCCGTATTTGGA (site AGGAAGACTTT)
recombinant UMI read abundance (log10): 1.63

AGGAAGACATGGACCGGTTTTCCCGGTAATCCGTATTTGTG (site AGGAAGACTCA)
recombinant UMI read abundance (log10): 2.35

AGGAAGACATGGACCGGTTTTCCCGGTAATCCGTATTTGTG (site AGGAAGACTTG)
recombinant UMI read abundance (log10): 0.492

AGGAAGCCATGGACCGGTTTTCCCGGTAATCCGTATTTGAA (site AGGAAGACTTG)
recombinant UMI read abundance (log10): 0

AGGAAGCCATGGACCGGTTTTCCCGGTAATCCGTATTTGAA (site AGGAAGCCTTT)
recombinant UMI read abundance (log10): 0.308

AGGAAGCCATGGACCGGTTTTCCCGGTAATCCGTATTTGCA (site AGGAAGACTTG)
recombinant UMI read abundance (log10): 0

AGGAAGCCATGGACCGGTTTTCCCGGTAATCCGTATTTGCA (site AGGAAGCCTTG)
recombinant UMI read abundance (log10): 0

AGGAAGCCATGGACCGGTTTTCCCGGTAATCCGTATTTGCA (site AGGAAGGCTTG)
recombinant UMI read abundance (log10): 0

AGGAAGCCATGGACCGGTTTTCCCGGTAATCCGTATTTGCA (site AGGAAGTCTTG)
recombinant UMI read abundance (log10): 0

AGGAAGTCATGGACCGGTTTTCCCGGTAATCCGTATTTGCG (site AGGAAGACTTG)
recombinant UMI read abundance (log10): 0

AGGAAGTCATGGACCGGTTTTCCCGGTAATCCGTATTTGCG (site AGGAAGTCTCG)
recombinant UMI read abundance (log10): 3.16

AGGAAGTCATGGACCGGTTTTCCCGGTAATCCGTATTTGTA (site AGGAAGACTTG)
recombinant UMI read abundance (log10): 0

AGGAAGTCATGGACCGGTTTTCCCGGTAATCCGTATTTGTA (site AGGAAGTCTTA)
recombinant UMI read abundance (log10): 2.97

AGGAATACATGGACCGGTTTTCCCGGTAATCCGTATTTGAC (site AGGAATACTGT)
recombinant UMI read abundance (log10): 1.74

AGGAATACATGGACCGGTTTTCCCGGTAATCCGTATTTGAC (site AGGACTACTGT)
recombinant UMI read abundance (log10): 0.624

AGGAATACATGGACCGGTTTTCCCGGTAATCCGTATTTGAC (site AGGAGTACTGT)
recombinant UMI read abundance (log10): 0

AGGAATACATGGACCGGTTTTCCCGGTAATCCGTATTTGAC (site AGGATTACTGT)
recombinant UMI read abundance (log10): 0

AGGAATACATGGACCGGTTTTCCCGGTAATCCGTATTTGGC (site AGGAATACTGC)
recombinant UMI read abundance (log10): 2.59

AGGAATCCATGGACCGGTTTTCCCGGTAATCCGTATTTGCT (site AGGAATCCTAG)
recombinant UMI read abundance (log10): 0

AGGAATCCATGGACCGGTTTTCCCGGTAATCCGTATTTGCT (site CGGAATCCTAA)
recombinant UMI read abundance (log10): 0.0057

AGGAATCCATGGACCGGTTTTCCCGGTAATCCGTATTTGTT (site AGGAATCCTAA)
recombinant UMI read abundance (log10): 0.74

AGGAATCCATGGACCGGTTTTCCCGGTAATCCGTATTTGTT (site CGGAATCCTAA)
recombinant UMI read abundance (log10): 0.0029

AGGAATCCATGGACCGGTTTTCCCGGTAATCCGTATTTGTT (site GGGAATCCTAA)
recombinant UMI read abundance (log10): 0

AGGAATCCATGGACCGGTTTTCCCGGTAATCCGTATTTGTT (site TGGAATCCTAA)
recombinant UMI read abundance (log10): 0

AGGACCACATGGACCGGTTTTCCCGGTAATCCGTATTTGAC (site AGGACAACTGT)
recombinant UMI read abundance (log10): 0.0127

AGGACCACATGGACCGGTTTTCCCGGTAATCCGTATTTGAC (site AGGACCACTGT)
recombinant UMI read abundance (log10): 2.79

AGGACCACATGGACCGGTTTTCCCGGTAATCCGTATTTGAC (site AGGACGACTGT)
recombinant UMI read abundance (log10): 0

AGGACCACATGGACCGGTTTTCCCGGTAATCCGTATTTGAC (site AGGACTACTGT)
recombinant UMI read abundance (log10): 0

AGGATCCCATGGACCGGTTTTCCCGGTAATCCGTATTTGTG (site AGGATCCCTCA)
recombinant UMI read abundance (log10): 0.753

AGGATCCCATGGACCGGTTTTCCCGGTAATCCGTATTTGTG (site AGGCTCCCTCA)
recombinant UMI read abundance (log10): 0.00372

AGGATCCCATGGACCGGTTTTCCCGGTAATCCGTATTTGTG (site AGGGTCCCTCA)
recombinant UMI read abundance (log10): 0.00264

AGGATCCCATGGACCGGTTTTCCCGGTAATCCGTATTTGTG (site AGGTTCCCTCA)
recombinant UMI read abundance (log10): 0.051

AGGATGACATGGACCGGTTTTCCCGGTAATCCGTATTTGCA (site AGGAAGACTTG)
recombinant UMI read abundance (log10): 2.34

AGGATGACATGGACCGGTTTTCCCGGTAATCCGTATTTGCA (site AGGACGACTTG)
recombinant UMI read abundance (log10): 1.16

AGGATGACATGGACCGGTTTTCCCGGTAATCCGTATTTGCA (site AGGAGGACTTG)
recombinant UMI read abundance (log10): 1.19

AGGATGACATGGACCGGTTTTCCCGGTAATCCGTATTTGCA (site AGGATGACTTG)
recombinant UMI read abundance (log10): 2.76

AGGATGCCATGGACCGGTTTTCCCGGTAATCCGTATTTGCT (site AGGATGCCTAG)
recombinant UMI read abundance (log10): 0.721

AGGATTACATGGACCGGTTTTCCCGGTAATCCGTATTTGAC (site AGGAATACTGT)
recombinant UMI read abundance (log10): 0

AGGATTACATGGACCGGTTTTCCCGGTAATCCGTATTTGAC (site AGGACTACTGT)
recombinant UMI read abundance (log10): 0.662

AGGATTACATGGACCGGTTTTCCCGGTAATCCGTATTTGAC (site AGGAGTACTGT)
recombinant UMI read abundance (log10): 0

AGGATTACATGGACCGGTTTTCCCGGTAATCCGTATTTGAC (site AGGATTACTGT)
recombinant UMI read abundance (log10): 1.4

AGGCAGACATGGACCGGTTTTCCCGGTAATCCGTATTTGGA (site AGGAAGACTTG)
recombinant UMI read abundance (log10): 0

AGGCAGACATGGACCGGTTTTCCCGGTAATCCGTATTTGGA (site AGGCAGACTTC)
recombinant UMI read abundance (log10): 1.21

AGGCGCGCATGGACCGGTTTTCCCGGTAATCCGTATTTGGA (site AGGCGCGCTTC)
recombinant UMI read abundance (log10): 0.849

AGGCTGTCATGGACCGGTTTTCCCGGTAATCCGTATTTGTT (site AGGCTGTCTAA)
recombinant UMI read abundance (log10): 1.64

AGGGACACATGGACCGGTTTTCCCGGTAATCCGTATTTGGC (site AGGGACACTGC)
recombinant UMI read abundance (log10): 2.93

AGGGAGTCATGGACCGGTTTTCCCGGTAATCCGTATTTGCA (site AGGAAGACTTG)
recombinant UMI read abundance (log10): 0.426

AGGGAGTCATGGACCGGTTTTCCCGGTAATCCGTATTTGCA (site AGGGAGTCTTG)
recombinant UMI read abundance (log10): 2.79

AGGGAGTCATGGACCGGTTTTCCCGGTAATCCGTATTTGCC (site AGGGAGTCTGG)
recombinant UMI read abundance (log10): 2.15

AGGGAGTCATGGACCGGTTTTCCCGGTAATCCGTATTTGCC (site CGGGAGTCTGG)
recombinant UMI read abundance (log10): 0.995

AGGGAGTCATGGACCGGTTTTCCCGGTAATCCGTATTTGCC (site GGGGAGTCTGG)
recombinant UMI read abundance (log10): 0

AGGGAGTCATGGACCGGTTTTCCCGGTAATCCGTATTTGCC (site TGGGAGTCTGG)
recombinant UMI read abundance (log10): 0.994

AGGGCACCATGGACCGGTTTTCCCGGTAATCCGTATTTGCA (site AGGGCACCTTG)
recombinant UMI read abundance (log10): 0.655

AGGGCACCATGGACCGGTTTTCCCGGTAATCCGTATTTGCA (site CGGGCACCTTG)
recombinant UMI read abundance (log10): 0

AGGGCACCATGGACCGGTTTTCCCGGTAATCCGTATTTGCA (site GGGGCACCTTG)
recombinant UMI read abundance (log10): 0

AGGGCACCATGGACCGGTTTTCCCGGTAATCCGTATTTGCA (site TGGGCACCTTG)
recombinant UMI read abundance (log10): 0
